Measured values reported in publication PMC7115430 (European Journal of Medicinal Chemistry, 2014).
Read-outs that look alike come from different tables or passages of the source.

Experiments:
Vero cells = conditions: microscopically detectable alteration of normal cell morphology
Sindbis virus = experiment: microbe, parasite or virus in culture; assay type: cell-based; conditions: Vero, read-out: EC50 Sindbis virus
Reovirus-1 = experiment: organism not typed; assay type: cell-based; conditions: Vero, read-out: EC50 Reovirus-1
Para-influenza-3 virus = experiment: organism not typed; assay type: cell-based; conditions: Vero, read-out: EC50 Para-influenza-3 virus
Punta toro virus = experiment: microbe, parasite or virus in culture; assay type: cell-based; conditions: Vero, read-out: EC50 Punta toro virus
in vitro = conditions: dog
Influenza B = experiment: microbe, parasite or virus in culture; assay type: cell-based; conditions: MDCK
[1] = read-out: Antiviral EC50 Influenza B MTS
[2] = read-out: Antiviral EC50 Influenza B Visual CPE score

Compound | Minimum cytotoxic concentration (Vero cells) | EC50 (Sindbis virus) | EC50 (Reovirus-1) | EC50 (Para-influenza-3 virus) | EC50 (Punta toro virus) | CC50 (in vitro) | EC50 (Influenza B; [1]) | EC50 (Influenza B; [2])
Nc1ncnc2c1ncn2C[C@H](O)CO [(S)-DHPA] | >250 µM | > 250 µM | > 250 µM | > 250 µM | > 250 µM |  |  | 
CCC(CC)O[C@@H]1C=C(C(=O)O)C[C@H](N)[C@H]1NC(C)=O [Oseltamivir carboxylate] |  |  |  |  |  | > 100 µM | 6.2 ± 0.33 µM | 4 ± 0.11 µM
CC(N)C12CC3CC(CC(C3)C1)C2 (stereo not shown) [Rimantadine] |  |  |  |  |  | > 500 µM |  | 
NC(=O)c1ncn([C@@H]2O[C@H](CO)[C@@H](O)[C@H]2O)n1 [Ribavirin] | >250 µM | > 250 µM | > 250 µM | 112 µM |  |  | 9.6 ± 0.98 µM | 9 ± 0.56 µM
NC12CC3CC(CC(C3)C1)C2 [Amantadine] |  |  |  |  |  | > 500 µM |  | 
